What was measured:
A2780 ovarian cells [1] = experiment: A2780 Ovarian Cell Proliferation Assay in Lipid Reduced Medium, without Palmitate; type: cell-based; settings: Homo sapiens, A2780; lipid reduced medium, without palmitate, 96 h, MTT; read-out: Proliferation A2780 w/o Palmitate pIC50 (converted)
How it was run: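 A2780 cells were seeded in 10% FCS medium and switched next day to 10% lipid-reduced serum without palmitate. Compounds at 0.01–30 μM were added with 0.2% DMSO, 0.2% fatty-acid-free BSA and 0.25% ethanol final. After 96 h, MTT absorbance at 544 nm was normalized to plate controls, and IC50/pIC50 came from a 4-parameter logistic fit.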

A2780 ovarian cells [2] = experiment: A2780 Ovarian Cell Proliferation Assay in Lipid Reduced Medium, with Palmitate (control); type: cell-based; settings: Homo sapiens, A2780; lipid reduced medium, 25 μM palmitate, 96 h, MTT; read-out: Proliferation A2780 with Palmitate pIC50 (converted)
How it was run: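 A2780 cells were seeded in RPMI1640 with 10% FCS, then switched next day to medium with 10% lipid-reduced serum. Compound was added with final 25 μM palmitate, 0.2% fatty-acid-free BSA and 0.2% DMSO, and incubated 96 h at 37 °C. Read-out was MTT absorbance at 544 nm; pIC50 = −log(IC50) from curve fit.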

[3] = molecular target: T1, hFASN enzyme (full length) (Homo sapiens, UniProt P49327); experiment: Fatty Acid Synthase (FASN) Inhibition Scintillation Proximity Assay; type: biochemical; settings: for IC50: mean where tested more than once, ~ = standard error of pIC50 larger than 0.5; for inhibition at 10 µM: read-out: FASN % Effect @1E−05M
T1 construct: 10 μL hFASN enzyme (full length, 300 ng, purified in house); made in house
T1 sequence (P49327 whole entry): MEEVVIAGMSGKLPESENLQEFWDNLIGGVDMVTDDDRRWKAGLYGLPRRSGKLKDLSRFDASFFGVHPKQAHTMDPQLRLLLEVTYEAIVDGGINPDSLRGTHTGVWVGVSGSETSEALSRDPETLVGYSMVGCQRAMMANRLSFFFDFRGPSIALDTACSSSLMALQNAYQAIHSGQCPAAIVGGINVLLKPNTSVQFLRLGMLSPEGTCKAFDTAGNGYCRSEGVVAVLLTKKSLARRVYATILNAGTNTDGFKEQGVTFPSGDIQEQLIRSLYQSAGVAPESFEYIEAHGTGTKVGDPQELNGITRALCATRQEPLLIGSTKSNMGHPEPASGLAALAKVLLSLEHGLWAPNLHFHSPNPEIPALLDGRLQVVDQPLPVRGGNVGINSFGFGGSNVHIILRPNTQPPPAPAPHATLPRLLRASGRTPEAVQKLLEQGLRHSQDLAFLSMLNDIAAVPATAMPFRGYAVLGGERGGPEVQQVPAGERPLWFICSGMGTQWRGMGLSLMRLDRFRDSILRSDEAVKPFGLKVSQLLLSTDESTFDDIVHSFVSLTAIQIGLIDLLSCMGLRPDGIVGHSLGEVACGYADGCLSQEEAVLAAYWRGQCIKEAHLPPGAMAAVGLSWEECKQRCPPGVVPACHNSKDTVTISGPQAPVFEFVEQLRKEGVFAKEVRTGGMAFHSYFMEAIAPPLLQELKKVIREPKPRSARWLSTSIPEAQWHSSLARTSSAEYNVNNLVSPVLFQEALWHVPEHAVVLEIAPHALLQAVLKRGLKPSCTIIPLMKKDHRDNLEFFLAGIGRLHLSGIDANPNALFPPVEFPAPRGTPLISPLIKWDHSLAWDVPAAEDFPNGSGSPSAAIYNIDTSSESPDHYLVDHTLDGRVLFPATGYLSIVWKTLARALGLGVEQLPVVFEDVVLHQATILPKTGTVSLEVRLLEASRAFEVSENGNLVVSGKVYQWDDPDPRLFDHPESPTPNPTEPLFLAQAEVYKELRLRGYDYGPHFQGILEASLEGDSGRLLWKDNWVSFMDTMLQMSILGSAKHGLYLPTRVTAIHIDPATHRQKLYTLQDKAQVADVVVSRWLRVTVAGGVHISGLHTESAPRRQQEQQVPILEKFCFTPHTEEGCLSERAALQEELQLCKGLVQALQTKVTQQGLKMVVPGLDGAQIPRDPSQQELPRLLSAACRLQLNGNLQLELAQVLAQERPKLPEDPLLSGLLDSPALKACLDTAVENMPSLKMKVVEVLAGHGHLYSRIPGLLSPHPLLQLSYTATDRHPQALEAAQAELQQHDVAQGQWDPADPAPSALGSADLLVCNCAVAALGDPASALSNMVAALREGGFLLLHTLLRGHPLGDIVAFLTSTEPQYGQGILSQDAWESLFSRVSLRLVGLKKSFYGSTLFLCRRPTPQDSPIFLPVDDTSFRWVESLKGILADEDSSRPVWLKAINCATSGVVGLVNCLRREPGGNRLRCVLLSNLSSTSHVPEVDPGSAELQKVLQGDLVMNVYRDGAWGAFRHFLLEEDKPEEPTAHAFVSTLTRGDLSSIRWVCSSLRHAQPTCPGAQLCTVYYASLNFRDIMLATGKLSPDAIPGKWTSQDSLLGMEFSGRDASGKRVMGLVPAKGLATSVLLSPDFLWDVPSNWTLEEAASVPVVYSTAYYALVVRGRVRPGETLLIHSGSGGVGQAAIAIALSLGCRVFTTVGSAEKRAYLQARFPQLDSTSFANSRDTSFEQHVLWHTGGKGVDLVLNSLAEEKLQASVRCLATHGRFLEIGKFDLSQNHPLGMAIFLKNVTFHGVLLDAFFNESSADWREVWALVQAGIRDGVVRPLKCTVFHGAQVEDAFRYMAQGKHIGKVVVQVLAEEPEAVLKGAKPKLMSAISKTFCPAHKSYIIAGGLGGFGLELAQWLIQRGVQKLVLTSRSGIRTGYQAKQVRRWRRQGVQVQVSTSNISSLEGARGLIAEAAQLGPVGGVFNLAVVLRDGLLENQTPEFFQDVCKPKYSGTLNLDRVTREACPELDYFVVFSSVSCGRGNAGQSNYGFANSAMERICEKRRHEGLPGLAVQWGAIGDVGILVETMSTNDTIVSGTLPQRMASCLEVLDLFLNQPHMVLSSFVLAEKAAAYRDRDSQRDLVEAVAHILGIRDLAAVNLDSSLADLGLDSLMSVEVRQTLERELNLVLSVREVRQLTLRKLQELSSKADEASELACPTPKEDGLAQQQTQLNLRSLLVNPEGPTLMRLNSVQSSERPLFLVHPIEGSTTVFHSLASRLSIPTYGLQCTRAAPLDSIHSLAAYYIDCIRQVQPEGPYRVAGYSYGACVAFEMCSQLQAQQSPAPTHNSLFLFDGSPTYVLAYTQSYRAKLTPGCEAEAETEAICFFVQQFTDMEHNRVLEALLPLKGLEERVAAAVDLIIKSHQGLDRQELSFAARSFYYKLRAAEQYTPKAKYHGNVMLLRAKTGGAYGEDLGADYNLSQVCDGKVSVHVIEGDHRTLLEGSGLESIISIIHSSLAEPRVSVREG
How it was run: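 Purified full-length human FASN (300 ng) incubated 60 min at room temperature with NADPH, [3H]-acetyl-CoA and malonyl-CoA in 100 mM KH2PO4 pH 7.5, 1 mM DTT; compound at 30 μM to 0.01 μM. [3H]-palmitate captured by SPA imaging beads; IC50 from 4-parameter fit, reported as pIC50.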

[4] = molecular target: T2, FASN Keto-reductase Domain (Homo sapiens, UniProt P49327); experiment: Fatty Acid Synthase Keto-Reductase Domain (FASN KR) Inhibition; type: biochemical; settings: mean where tested more than once; read-out: FASN K-R Domain pIC50 (converted)
T2 construct: 10 μL hFASN enzyme (full length, 300 ng, purified in house) and 360 μM NADPH; made in house
T2 sequence (P49327 whole entry, the tested form may be a part): as the sequence (P49327 whole entry) above
How it was run: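 Full-length human FASN (300 ng) in 100 mM KH2PO4 pH 7.5 with 360 μM NADPH and 180 mM ethyl acetoacetate (stock); A340 decrease read over 20 min at room temperature.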

Structure (SMILES)	IC50 (A2780 ovarian cells [1])	IC50 (A2780 ovarian cells [2])	IC50 [3]	inhibition at 10 µM [3]	IC50 [4]
Cc1ccc(C(=O)N2CCC(c3ccc(-n4ccnc4)cc3)C(C)(C)C2)cc1NC(=O)c1ccc(Cl)nc1 (stereo not drawn) [Compound #6, N-(5-(4-(4-(1H-imidazol-1-yl)phenyl)-3,3-dimethylpiperidine-1-carbonyl)-2-methylphenyl)-6-chloronicotinamide]	234 nM	> 10000 nM	61.7 nM	104%	89.1 nM
Cc1ccc(C(=O)N2CCC(c3ccc(-n4ccnc4)cc3)CC2)cc1NC(=O)c1ccc(Cl)nc1 [Compound #11, N-(5-(4-(4-(1H-imidazol-1-yl)phenyl)piperidine-1-carbonyl)-2-methylphenyl)-6-chloronicotinamide]	56.2 nM	> 10000 nM	27.5 nM	106%	49 nM
Cc1ccc(C(=O)N2CCC(c3ccc(-n4ccnc4)cc3)C(C)(C)C2)cc1NC(=O)c1ccc(NC(C)C)nc1 (stereo not drawn) [Compound #43, N-(5-(4-(4-(1H-imidazol-1-yl)phenyl)-3,3-dimethylpiperidine-1-carbonyl)-2-methylphenyl)-6-(isopropylamino)nicotinamide]	132 nM	> 10000 nM	44.7 nM	106%	69.2 nM
CC(C)Nc1ccc(C(=O)Nc2cc(C(=O)N3CC(c4ccc(-c5cccnc5)cc4)C3)ccc2Cl)cn1 [Compound #73, N-(2-chloro-5-(3-(4-(pyridin-3-yl)phenyl)azetidine-1-carbonyl)phenyl)-6-(isopropylamino)nicotinamide]	148 nM	13500 nM	32.4 nM	93%	85.1 nM
CC(C)Nc1ccc(C(=O)Nc2cc(C(=O)N3CC(c4ccc(-c5ccncc5)cc4)C3)ccc2Cl)cn1 [Compound #74, N-(2-chloro-5-(3-(4-(pyridin-4-yl)phenyl)azetidine-1-carbonyl)phenyl)-6-(isopropylamino)nicotinamide]	61.7 nM	2190 nM	17.4 nM	107%	45.7 nM

The remaining lines, values ahead:

IC50 (A2780 ovarian cells [1])	IC50 (A2780 ovarian cells [2])	IC50 [3]	inhibition at 10 µM [3]	IC50 [4]	Structure (SMILES)
490 nM	> 10000 nM	100 nM	101%	537 nM	CC(C)Nc1ccc(C(=O)Nc2cc(C(=O)N3CCC(c4ccc(-c5cnn(C)c5)cc4)CC3)ccc2OCc2ccccc2)cn1 [Compound 271, N-(2-(benzyloxy)-5-(4-(4-(1-methyl-1H-pyrazol-4-yl)phenyl)piperidine-1-carbonyl)phenyl)-6-(isopropylamino)nicotinamide]
43.7 nM	1380 nM	29.5 nM	112%	105 nM	Cc1ccc(C(=O)N2CCC(c3ccc(-c4cnn(-c5ccncc5)c4)cc3)CC2)cc1NC(=O)c1ccc(NC(C)C)nc1 [Compound 272, 6-(isopropylamino)-N-(2-methyl-5-(4-(4-(1-(pyridin-4-yl)-1H-pyrazol-4-yl)phenyl)piperidine-1-carbonyl)phenyl)nicotinamide]
~47.9 nM	> 15100 nM	22.9 nM	109%	37.2 nM	Cc1ccc(C(=O)N2CCC(c3ccc(-n4ccnc4)cc3)CC2)cc1NC(=O)c1ccc(NC(C)C)nc1 [Compound #15, N-(5-(4-(4-(1H-imidazol-1-yl)phenyl)piperidine-1-carbonyl)-2-methylphenyl)-6-(isopropylamino)nicotinamide]
~74.1 nM	2190 nM	43.7 nM	106%	27.5 nM	Cc1ccc(C(=O)N2CC(c3ccc(-c4ccc5cnn(C)c5c4)cc3)C2)cc1NC(=O)c1ccc(NC(C)C)nc1 [Compound #36, 6-(isopropylamino)-N-(2-methyl-5-(3-(4-(1-methyl-1H-indazol-6-yl)phenyl)azetidine-1-carbonyl)phenyl)nicotinamide]

Reference: US9562035B2, “Benzamide derivative useful as FASN inhibitors for the treatment of cancer” (Janssen Pharmaceutica NV, priority 2013, dated 2017)
